Structures can show the parent of a compound that is named as a salt.

Test [1] concerns pulpitis due to carious diseases. Put plainly: Topical treatment of pulpitis due to carious diseases (patient cases). The format is in vivo, human. From the text:
This is of great importance because, for example in the case of caries profunda, it is always necessary to decide whether softened residual dentin can be left over the pulp. By virtue of complete elimination of the microbes present, there is now a novel method of treatment wherein a thin softened dentin covering can be left if the compounds of formula (I) or formula (II) are used. This method of treatment makes it possible to free infected dentin layers of microbes and to stop pulp infections. This means that pain reactions are eliminated and pulp infections are to a certain extent cured. The pulp remains vital. The topical application of the compounds of formula (I) or formula (II) followed the removal of the carious dentin. The compounds of formula (I) or formula (II) were applied for example in aqueous solution, in a form of gelatinous consistency or on an inert carrier, for example by means of a cotton wool plug. The overlying cavity was occluded with a cement to seal the margins. The cotton wool plug was left in the cavity for three to six days. The compounds of formula (I) or formula (II) can be used in concentrations of 0.005 mg/ml to 200 mg/ml, Preferred concentrations are those ranging from 0.5 mg/ml to 150 mg/ml and particularly preferred concentrations are those ranging from 10 to 100 mg/ml.

The test system of test [2] is infected root canal and periapical region. Put plainly: Topical treatment of the infected root canal and the periapical region (patient cases). The format is in vivo, human. The protocol: In the clinical use of the compounds of formula (I) or formula (II), the pulp residues are removed first. The preparation of the canals is carried out with minimum discomfort for the patient. The canals are then flushed with hydrogen peroxide, Other methods of disinfection can be omitted. The compounds of formula (I) or formula (II), in a liquid form of administration, are then introduced into the toot canal under pressure using a cannula. The compounds of formula (I) or (II) are then injected in dissolved form or in a gelatinous form of administration. The root canal is subsequently occluded in the crown region, first with a cotton wool plug and then with zinc phosphate cement to seal the margins. If the canals are not gangrenous, the antibiotics remain in the canals for 3 days. […] The compounds of formula (I) or formula (II) can be used in concentrations of 0.005 mg/ml to 200 mg/ml.
In this application technique, which is known from intraligamental anaesthesia, the tooth is completely flooded with the antibacterial solution of the compounds of formula (I) or formula (II) in the entire root region.

Another test relates to periodontal diseases. Description: Topical treatment of periodontal diseases (patient cases). It is filed as in vivo, human. From the text:
To do this, threads or so-called chips impregnated with solutions or gelatinous preparations of the compounds of formula (I) or formula (II) are inserted in the gingival pocket. A possible alternative is to use medicament carriers in the form of trays covering the teeth and gingiva. Before they are applied, the gelatinous applications of the compounds of formula (I) or formula (II) are instilled into the gingival pockets. In addition, the gel containing the compounds of formula (I) or formula (II) can also be placed in the medicament carrier. This use of medicament carriers is advantageous because the treatment time can be reduced by the rapid onset of action to about 15 to 30 minutes, so the treatment can be carried out directly in the surgery. The compounds of formula (I) or formula (II) can be used in concentrations of 0.005 mg/ml to 200 mg/ml. Preferred concentrations are those ranging from 0.5 mg/ml to 200 mg/ml and particularly preferred concentrations are those ranging from 10 to 150 mg/ml. Periodontal diseases can also be treated by administering the compounds of formula (I) or formula (II) by intraligamental injection, it being possible to use concentrations ranging from 0.005 mg/ml to 200 mg/ml, preferably from 0.5 mg/ml to 200 mg/ml. For the antibiotics commonly used nowadays, such as tetracyclines, an intraligamental injection is not reasonable since these compounds with a predominantly bacteriostatic action are quickly washed out due to the rapid fluid exchange in the periodontal interstice, and cannot develop their action. Tetra-cyclines can therefore only develop their effects via depot formulations. By contrast, the compounds of formula (I) or formula (II) have a very rapid and also bactericidal action, so their residence time in the periodontal interstice is sufficient to destroy the microbes.

A further test relates to osseomucosal wounds. Put plainly: Topical treatment of osseomucosal wounds (patient cases). The format is in vivo, human. The text has this:
Application is effected by flushing and/or by means of strip inserts impregnated with compounds of formula (I) or formula (II). They are to be used for example for postoperative infections following dentosurgical interventions (extractions). For this purpose the gel containing the compound of formula (I) or formula (II) is syringed directly into the extraction wound or onto a collagen sponge which remains in the extraction wound. The wound is closed for about half an hour by biting on a tampon. Prophylactic applications have been particularly successful after the extraction of teeth with focal infections, Liquid forms of administration suitable for flushing fistulae are those containing the compounds of formula (I) or formula (II) in concentrations of 0.005 mg/ml to 250 mg/ml. Preferred concentrations are those ranging from 0.5 to 100 mg/ml, Forms suitable for coating strips are gels containing the compounds of formula (I) or formula (II), as well as aqueous solutions or suspensions. These applications can contain the compounds of formula (I) or formula (II) in concentrations of 0.005 mg/ml to 200 mg/ml. Preferred concentrations for solutions are those ranging from 0.1 to 50 mg/ml Gelatinous forms of administration in concentrations of 25-150 mg/ml are preferred in the case of strip inserts.

In a further test the test system is bacteraemia. The conditions noted are these: systemic administration ten minutes prior to a dental extraction; cited from earlier work.
Another test relates to Staphylococcus epidermis. The conditions noted are these: microorganisms isolated from the root canals after topical antibiotic treatment; cited from earlier work.
The test system of test [3] is Staphylococcus aureus strains. The following applies: microorganisms isolated from the root canals after topical antibiotic treatment; cited from earlier work.

`Cc1c(F)c(N2CCNC(C)C2)cc2c1c(=O)c(C(=O)O)cn2C1CC1` (stereo not drawn) [grepafloxacin, 1-cyclopropyl-6-fluoro-1,4-dihydro-5-methyl-7-(3-methyl-1-piperazinyl)-4-oxo-3-quinolinecarboxylic acid]: the “clinical finding at check-up” value in test [1] (Patient A 1.11, gel 25 mg/ml, after final filling, check-up after 4 weeks) is “tooth vital, patient symptom-free”; in test [1] (Patient A 1.11, tooth 22, pellet insert gel 25 mg/ml, check-up after 5 days), “patient was symptom-free”; in test [1] (Patient A 1.12, gel 50 mg/ml, after final filling, check-up after 14 days), “teeth vital, patient symptom-free”; in test [1] (Patient A 1.12, teeth 22, 23, pellet inserts gel 50 mg/ml, check-up after 1 week) it was “teeth symptom-free”; in test [2] (Patient A 3.16, after root filling, check-up after 1 week) it was “patient still symptom-free”; in test [2] (Patient A 3.16, tooth 46 apical periodontitis, not gangrenous, root canal insert gel 50 mg/ml, check-up after 3 weeks) it was “patient symptom-free”. Besides, the “clinical finding at check-up” value is “patient symptom-free” in test [2] (Patient A 3.17, after root filling, check-up after 4 days); “no gangrenous odour, no bite discomfort” in test [2] (Patient A 3.17, tooth 32 apical periodontitis due to gangrene, solution 20 mg/ml + gel 20 mg/ml + intraligamental injection 50 mg/ml, check-up after 6 days); “patient symptom-free” in test [2] (Patient A 3.23, tooth 34 fistulation, gangrenous, solution 50 mg/ml by paper point + intraligamental injection 50 mg/ml, check-up after 10 days); “patient symptom-free, gingival regions and pockets inflammation-free” with periodontal diseases (Patient B 7, teeth 14-17 marginal periodontitis, thread insert gel 50 mg/ml + intraligamental injection 50 mg/ml, check-up after 9 days); “patient is symptom-free” in the test with osseomucosal wounds (Patient C 8, apical granulomas, extraction (osteotomy), gauze with gel 50 mg/ml, check-up after 3 days); “patient symptom-free” in the test with osseomucosal wounds (Patient C 9, same combined treatment, after root canal filling, check-up after 2 weeks). In addition, the “clinical finding at check-up” value in the test on osseomucosal wounds (Patient C 9, tooth 14 pulpitis purulenta, fistulation, moxifloxacin hydrochloride solution 25 mg/ml flushing + grepafloxacin gel 25 mg/ml canal insert + moxifloxacin hydrochloride gel 25 mg/ml gauze insert, check-up after 6 days) was “patient symptom-free”.
Consider `CO/N=C(\C(=O)N[C@@H]1C(=O)N2C(C(=O)O)=C(COC(N)=O)CS[C@H]12)c1ccco1` [cefuroxim], for which the “frequency of bacteraemia versus the untreated group” value with bacteraemia was “lower frequency”.
As for `C[C@H]1COc2c(N3CCN(C)CC3)c(F)cc3c(=O)c(C(=O)O)cn1c23` [levofloxacin, (3S)-9-fluoro-2,3-dihydro-3-methyl-10-(4-methyl-1-piperazinyl)-7-oxo-7H-pyrido[1,2,3-de]-1,4-benzoxazine-6-carboxylic acid], in test [1] (Patient A 1.14, tooth 13, night pain, pellet inserts gel 50 mg/ml, check-up after 14 days), the “clinical finding at check-up” value is given as “patient symptom-free, tooth vital”.
With `COc1cccc(OC)c1C(=O)N[C@@H]1C(=O)N2[C@@H]1SC(C)(C)[C@@H]2C(=O)O` [methicillin], in the test on Staphylococcus epidermis, the “increase of resistance after the treatment” value is “two-fold”.
Turning to `NC1CCN(c2nc3c(cc2F)c(=O)c(C(=O)O)cn3-c2ccc(F)cc2F)C1` (stereo not drawn) [tosufloxacin tosylate, 7-(3-amino-1-pyrrolidinyl)-1-(2,4-difluorophenyl)-6-fluoro-1,4-dihydro-4-oxo-1,8-naphthyridine-3-carboxylic acid], the “clinical finding at check-up” value in test [2] (Patient A 3.20, tooth 47 apical periodontitis, not gangrenous, root canal insert gel 100 mg/ml, check-up after 8 days) is “patient symptom-free”; in test [2] (Patient A 3.22, tooth 35 apical periodontitis, not gangrenous, root canal insert gel 50 mg/ml, check-up after 10 days) it was “patient symptom-free”.
Regarding `CO/N=C1\CN(c2nc3c(cc2F)c(=O)c(C(=O)O)cn3C2CC2)CC1CN` (stereo not drawn) [gemifloxacin mesylate, 7-[(4Z)-3-(aminomethyl)-4-(methoxyimino)-1-pyrrolidinyl]-1-cyclopropyl-6-fluoro-1,4-dihydro-4-oxo-1,8-naphtyridine-3-carboxylic acid], the “clinical finding at check-up” value in test [1] (Patient A 1.13, gel 25 mg/ml, repetition of insert, check-up after 4 days) was “tooth vital, patient symptom-free”; in test [1] (Patient A 1.13, tooth 14, pellet insert gel 25 mg/ml, check-up after 3 weeks), “still slight discomfort”.
As for `CC[C@H]1OC(=O)[C@H](C)[C@@H](O[C@H]2C[C@@](C)(OC)[C@@H](O)[C@H](C)O2)[C@H](C)[C@@H](O[C@@H]2O[C@H](C)C[C@H](N(C)C)[C@H]2O)[C@](C)(O)C[C@@H](C)C(=O)[C@H](C)[C@@H](O)[C@]1(C)O` [erythromycin], the “increase of resistance after the treatment” value in the test on Staphylococcus epidermis is “three-fold”. Moreover, the resistance of strains entry in test [3] was “majority of Staphylococcus aureus strains were resistant”.
Turning to `C[C@@H]1CN(c2c(F)c(N)c3c(=O)c(C(=O)O)cn(C4CC4)c3c2F)C[C@H](C)N1` [sparfloxacin, 5-amino-1-cyclopropyl-7-[(3R,5S)-3,5-dimethyl-1-piperazinyl]-6,8-difluoro-1,4-dihydro-4-oxo-3-quinolinecarboxylic acid], the “clinical finding at check-up” value was “patient symptom-free, tooth vital” in test [1] (Patient A 1.16, gel 25 mg/ml, repetition of insert, check-up after 14 days) and “still slight sensitivity to heat” in test [1] (Patient A 1.16, tooth 46 reduced vitality, pellet insert gel 25 mg/ml, check-up after 4 days).
As for `O=C(N[C@H](CO)[C@H](O)c1ccc([N+](=O)[O-])cc1)C(Cl)Cl` [chloramphenicol], the resistance of strains result in test [3] is “majority of Staphylococcus aureus strains were resistant”.
For the compound `N[C@@H]1[C@H]2CN(c3nc4c(cc3F)c(=O)c(C(=O)O)cn4-c3ccc(F)cc3F)C[C@@H]12` [trovafloxacin mesylate, 7-(1α,5α,6α-6-amino-3-azabicyclo[3.1.0]hex-3-yl)-1-(2,4-difluorophenyl)-6-fluoro-1,4-dihydro-4-oxo-1,8-naphthyridine-3-carboxylic acid], the “clinical finding at check-up” value is on record as “patient symptom-free, tooth vital” in test [1] (Patient A 1.15, tooth 44, night pain, pellet insert gel 50 mg/ml, check-up after 9 days); “patient symptom-free” in test [2] (Patient A 3.18, tooth 34 apical periodontitis due to gangrene, gel 100 mg/ml + intraligamental injection 50 mg/ml, check-up after 12 days); “patient symptom-free, canal odour-free” in test [2] (Patient A 3.19, tooth 11 apical periodontitis due to gangrene simplex, root canal insert solution 50 mg/ml, check-up after 3 weeks); “patient symptom-free, inflammation phenomena no longer present” with periodontal diseases (Patient B 8, marginal periodontitis entire upper and lower jaw, medicinal splint gel 0.25 mg/ml 10 minutes/day for 6 days, check-up after 6 days).
Regarding penicillin, the resistance of strains entry in test [3] was “majority of Staphylococcus aureus strains were resistant”.

(Values after US8975275B2, “Use of chemotherapeutic agents” (priority 1999, dated 2015).)
